Where no end group is shown, it is not given here.
Tested on: IκBα
Assay: Western blot of IκBα phosphorylation in adipocytes with palmitate-induced inflammation
Format: cell-based
Conditions: 3T3-L1 adipocytes, inflammation induced by 25 μM palmitate; 0.2, 2, 20 μg/mL; 24 hours; Western blot vs PA control (FIGS. 5a, 5b)
Method: An experiment was performed to determine whether the peptide complex prepared in Preparation Example 1 induces a decrease in the phosphorylation of IκBα and a decrease in the expression level of the inflammatory cytokine TNFα in adipocytes under an inflammatory state induced by palmitate treatment.
When 3T3-L1 preadipocytes reached 80% confluence, they were seeded at 5×10^3 cells/well in a 96-well plate and used for the experiment. Two days after reaching confluence, the medium was replaced with a differentiation-inducing medium to induce the differentiation into adipocytes. Two days after the induction, the cells were cultured for 2 days in a medium containing 10% FBS and 10 μg/mL insulin, and then the medium was replaced with 10% FBS every days 2 until their differentiation into adipocytes. Once the differentiation was complete, the medium was replaced with a serum-free medium and cultured for 4 hours to induce starvation. After treating with 25 μM palmitate for 30 minutes, the peptide complexes were treated at concentrations of 0.2 μg/mL, 2 μg/mL, and 20 μg/mL and incubated for 24 hours. The control group (PA) was treated only with palmitate but not with the peptide complex. After dissolving by adding dissolution buffer thereto, the proteins obtained by centrifugation at 4° C. and 12,000 rpm for 30 minutes were quantified using a BCA kit. […]

peptide complex: prepared by mixing equal amounts of the peptide of SEQ ID NO: 1 (LKTRN) and the peptide of SEQ ID NO: 2 (KGSATGWMA) (also: mixture of two peptides)
phosphorylation of IκBα: reduced
